Experimental data from publication PMC9774939, “Optimization of Pyrazole Compounds as Antibiotic Adjuvants Active against Colistin- and Carbapenem-Resistant Acinetobacter baumannii” (Antibiotics, 2022).

Columns and labels:
[1] = system: Acinetobacter baumannii ATCC 17978; assay: MAC determination in the presence of subinhibitory colistin; format: cell-based; conditions: for MAC Aba: in the presence of 0.5 × MIC colistin; for MIC/MAC Ratio Aba: minimal ratio of MIC of compound alone to MAC with 0.5 × MIC colistin
Method: (§1) The minimum inhibitory concentration (MIC) and minimum bactericidal concentration (MBC) of the compounds were determined in triplicate using Mueller–Hinton broth and a bacterial inoculum of 5 × 10^5 CFU/mL, as recommended by the CLSI [26]. The minimum antibacterial concentration (MAC) of the compounds was determined in the presence of a fixed and subinhibitory concentration of colistin (as mentioned above).

[2] = system: Acinetobacter baumannii N50; assay: MBC determination in the presence of colistin; format: cell-based; conditions: in the presence of 2 µg/mL of colistin
Method: as §1

[3] = system: A. baumannii ATCC 17978; assay: Chequerboard analysis with colistin; format: cell-based, Acinetobacter baumannii; conditions: combination with colistin; synergy when ≤0.5
Method: (§2) The chequerboard analysis is a two-dimensional array in which individual microplate wells contain a unique combination of the concentrations of the tested compound and colistin. Tested concentrations of the compound ranged from 64 to 0.06 μg/mL along the x-axis, whereas polymyxin E1 concentrations ranged from 2 to 0.03 μg/mL (or 32–0.5 μg/mL when polymyxin E1-resistant clinical isolates were used) and varied along the y-axis. Determining the fractional inhibitory concentration (FIC) of both compounds and computing the average FIC index allowed us to determine whether a synergistic, additive, or antagonistic activity between the tested compounds could be observed. A synergistic activity occurred when the average FIC index was equal to or less than 0.5 [21, 27].

[4] = system: E. coli CCUG^T; assay: Chequerboard analysis with colistin; format: cell-based, Escherichia coli; conditions: combination with colistin; synergy when ≤0.5
Method: as §2

[5] = system: K. pneumoniae ATCC 13833; assay: Chequerboard analysis with colistin; format: cell-based, Klebsiella pneumoniae; conditions: combination with colistin; synergy when ≤0.5
Method: as §2

[6] = system: A. baumannii N50; assay: Chequerboard analysis with colistin; format: cell-based, Acinetobacter baumannii; conditions: combination with colistin; MDR, colistin-resistant isolate
Text: (§3) Carbapenem-resistant, colistin-resistant, and XDR clinical isolates were kindly provided by Prof. Gian Maria Rossolini (University of Florence, Italy). Klebsiella pneumoniae SI-004Bo is a KPC-producing, pandrug-resistant isolate (KKBO-4 [17]) selected in vivo during colistin therapy (colistin resistance mechanism, IS-mediated insertional inactivation of mgrB). Acinetobacter baumannii N50 is an OXA-24-producing clinical isolate resistant to all β-lactams, aminoglycosides, and fluoroquinolones.
as §2

[7] = system: Escherichia coli CCUG^T; assay: MAC determination in the presence of subinhibitory colistin; format: cell-based; conditions: for MAC Eco: in the presence of 0.5 × MIC colistin; for MIC/MAC Ratio Eco: minimal ratio of MIC of compound alone to MAC with 0.5 × MIC colistin
Method: as §1

[8] = system: Klebsiella pneumoniae ATCC 13833; assay: as above; format: cell-based; parameters: key to MAC Kpn: -: No synergistic activity; conditions: for MAC Kpn: in the presence of 0.5 × MIC colistin
Method: as §1

[9] = system: HeLa cells; assay: Cell viability and proliferation assay (RealTime-Glo MT); format: cell-based; conditions: 16 µg/mL of compound, up to 72 h
Method: The cytotoxicity of the compounds was also evaluated by measuring the number of viable cells in the culture with respect to the control culture (cells treated with DMSO only) using the RealTime-Glo™ MT Cell Viability Assay in the presence of varying concentrations of the compound. The assay is a nonlytic homogeneous, bioluminescent method that can be used to measure cell viability/proliferation in real time using NanoLuc® luciferase and a cell-permeant prosubstrate (MT Cell Viability Substrate). […]

[10] = Hemolytic activity; format: cell-based; conditions: 0.025–10 μg of compound
Method: The hemolytic activity of compounds 1, 2, 8, 9, 45, and 49 (0.025–10 μg) was investigated using the method described by Bechlars et al.. Triton X-100 was used as the hemolysis control and DMSO as the negative control.

[11] = system: K. pneumoniae SI-004Bo; assay: Chequerboard analysis with colistin; format: cell-based, Klebsiella pneumoniae; conditions: combination with colistin; pandrug-resistant, colistin-resistant isolate
Text: as §3, §2

[12] = system: Acinetobacter baumannii N50; assay: Time-kill curve analysis; format: cell-based
Method: The time-dependent bacterial killing of colistin, compound 9, or a combination thereof was investigated using established methods. Briefly, a culture medium containing a starting inoculum of 5.0 × 10^6 CFU/mL of Acinetobacter baumannii N50 clinical isolate was incubated aerobically at 35 °C under orbital agitation (200 rpm) in Mueller–Hinton broth, in the absence (growth control) or presence of either 2 μg/mL of colistin (a concentration equivalent to the susceptibility breakpoint), 8 µg/mL of compound 9, or both. The bacterial count (expressed in CFU/mL) in the control and antibiotic-containing media was determined every hour for up to 6 h of incubation via serial 10-fold dilution and direct plating of 0.1 mL of the sample on the Mueller–Hinton Agar medium (without antibiotic), which was incubated for 24 h at 35 °C.

[13] = Membrane integrity assay (LDH release); format: cell-based; conditions: human, HeLa cells; tested alone, 24 h exposure; read-out: IC50 cytotoxicity (membrane-damaging activity, LDH release)
Method: The potential cytotoxic activity of compounds was evaluated using the commercially available integrity assay (CytoTox 96® non-radioactive cytotoxicity assay, Promega). The compounds were tested for their ability to induce the lysis of HeLa cells by measuring the release of lactate dehydrogenase (LDH) after incubating the HeLa cell cultures (20,000 cells/well) for 24 h (37 °C, 5% CO2) in DMEM (Dulbecco’s Modified Eagle Medium) supplemented with 10% fetal bovine serum, 4.5 mg/mL glucose, and 2 mM L-glutamine in the absence and presence of varying concentrations of the compounds (up to 256 µg/mL). Further controls included samples containing the medium only or in which cell lysis was induced by the addition of 9% Triton X-100 (maximum LDH release control). The percentage of cytotoxicity was computed as 100 × (sample LDH release)/(maximum LDH release). The variation of the percentage of cytotoxicity allowed us to compute an IC50 value (compound concentration inducing 50% cytotoxicity).

SMILES	MAC Aba [1]	MIC/MAC Ratio Aba [1]	MBC [2]	Average FIC Index [3]	Average FIC Index [4]	Average FIC Index [5]	Average FIC Index [6]	MAC Eco [7]	MIC/MAC Ratio Eco [7]	MAC Kpn [8]	MIC/MAC Ratio Kpn ([8]; minimal ratio of MIC of compound alone to MAC with 0.5 × MIC colistin)	proliferation of HeLa cells [9]	hemolytic activity [10]	Average FIC Index [11]	reduction of bacterial population (time-kill) ([12]; 2 µg/mL of colistin and 8 µg/mL of 9, within 5 h)	antibacterial activity alone (time-kill) ([12]; 8 µg/mL of 9 alone)	melting point	IC50 at 24 h [13]
CC(C)(C)OC(=O)[C@H](Cc1ccccc1)NC(=O)c1cnn(-c2ccccc2)c1-n1cccc1 [Compound 9, tert-Butyl (S)-3-Phenyl-2-[[[1-phenyl-5-(1H-pyrrol-1-yl)-1H-pyrazol-4-yl]carbonyl]amino]propanoate]	4 µg/mL	128	> 64 µg/mL	0.34	0.33	0.32	0.23	8 µg/mL	64	8 µg/mL	64	not significantly altered	no hemolytic activity could be observed	1	4 log10	does not exhibit antibacterial activity		
O=C(NC12CC3CC(CC(C3)C1)C2)c1cnn(-c2ccccc2)c1-n1cccc1 [Compound 8, N-(Adamantan-1-yl)-1-phenyl-5-(1H-pyrrol-1-yl)-1H-pyrazole-4-carboxamide]	4 µg/mL	128	> 64 µg/mL	0.31	0.38	0.5	0.24	32 µg/mL	16	- ^a			no hemolytic activity could be observed	1			167 to 169 °C	> 256 µg/mL
